From patent publication US20070128217A1 (priority 2003, published 2007)

Assays:
[1] = tested on: antibodies in sera from SARS patients (sera 1a, 1b, 2, 6, 37, 62, London, SARS-yellow, SARS-green); assay type: binding, human; parameters: Binding of serum 6 to linear peptides of protein X1 of SARS-CoV Urbani / Binding of serum 37 to linear peptides of protein X1 of SARS-CoV Urbani / Binding of serum 6 to looped/cyclic peptide (PEPSCAN-ELISA) / Binding of serum 37 to looped/cyclic peptide (PEPSCAN-ELISA) / Binding of serum 37 to looped/cyclic peptides of protein X1 of SARS-CoV Urbani / Binding of serum 6 to linear peptides of protein X2 / Binding of serum 37 to linear peptides of protein X2 / Binding of serum 37 to looped/cyclic peptides of protein X2 of SARS-CoV Urbani / Binding of serum 6 to linear peptides of protein M of SARS-CoV Urbani / Binding of serum 37 to linear peptides of protein M of SARS-CoV Urbani / Binding of serum 6 to looped/cyclic peptides of protein M of SARS-CoV Urbani / Binding of serum 37 to looped/cyclic peptides of protein M of SARS-CoV Urbani / Binding of serum 6 to linear peptides of protein X3 of SARS-CoV Urbani / Binding of serum 37 to linear peptides of protein X3 of SARS-CoV Urbani / Binding of serum 37 to looped/cyclic peptides of protein X3 of SARS-CoV Urbani / Binding of serum 6 to linear peptides of protein X4 of SARS-CoV Urbani / Binding of serum 37 to linear peptides of protein X4 of SARS-CoV Urbani / Binding of serum 37 to looped/cyclic peptides of protein X4 of SARS-CoV Urbani / Binding of serum 6 to linear peptides of protein X5 of SARS-CoV Urbani / Binding of serum 37 to linear peptides of protein X5 of SARS-CoV Urbani / Binding of serum 37 to looped/cyclic peptides of protein X5 of SARS-CoV Urbani / Binding of serum 6 to linear peptides of protein N of SARS-CoV Urbani / Binding of serum 37 to linear peptides of protein N of SARS-CoV Urbani / Binding of serum 6 to linear peptide (PEPSCAN-ELISA) / Binding of serum 1a to looped/cyclic peptides of protein N of SARS-CoV Urbani / Binding of serum 1b to looped/cyclic peptides of protein N of SARS-CoV Urbani / Binding of serum 2 to looped/cyclic peptides of protein N of SARS-CoV Urbani / Binding of serum 6 to looped/cyclic peptides of protein N of SARS-CoV Urbani / Binding of serum 37 to looped/cyclic peptides of protein N of SARS-CoV Urbani / Binding of serum 62 to looped/cyclic peptides of protein N of SARS-CoV Urbani / Binding of serum London to looped/cyclic peptides of protein N of SARS-CoV Urbani / Binding of serum SARS-green to looped/cyclic peptides of protein N of SARS-CoV Urbani: unit not given here
[2] = tested on: recombinant human anti-SARS-CoV antibody 03-018; assay type: binding; parameters: Binding of antibody 03-018 to linear peptides of the N protein of SARS-CoV Urbani / Binding of antibody 03-018 to looped/cyclic peptides of the N protein of SARS-CoV Urbani: unit not given here
[3] = tested on: rabbit serum obtained by immunizing a rabbit with the SARS-CoV strain Frankfurt 1; assay type: binding; parameters: Binding of a rabbit serum to linear peptides / Binding of a rabbit serum to looped peptides / Rabbit serum linear peptides / Rabbit serum looped peptides / Binding of a rabbit serum to linear peptides of protein N of SARS-CoV Urbani (Rabbit serum linear peptides) / Binding of a rabbit serum to looped/cyclic peptides of protein N of SARS-CoV Urbani (Rabbit serum looped peptides): unit not given here
[4] = tested on: control sera (pooled serum of ten healthy LUMC hospital workers; commercial negative donor pooled serum from the Dutch bloodbank); assay type: binding, human; parameters: Binding of Control serum LUMC to linear peptides / Binding of Control serum Blood-bank to linear peptides / Binding of Control serum LUMC to looped peptides / Binding of Control Serum Blood-Bank to Looped peptides / Binding of Control serum LUMC to linear peptides of the protein M of SARS-CoV Urbani / Binding of Control serum Blood-bank to linear peptides of the protein M of SARS-CoV Urbani / Binding of Control serum LUMC to looped peptides of the protein M of SARS-CoV Urbani / Binding of Control Serum Blood-Bank to Looped peptides of the protein M of SARS-CoV Urbani: unit not given here

Sequence | Binding of serum 1a to linear peptides of protein N of SARS-CoV Urbani [1] | Binding of serum 1a to looped/cyclic peptides of protein N of SARS-CoV Urbani [1] | Binding of serum 1b to linear peptides of protein N of SARS-CoV Urbani [1] | Binding of serum 1b to looped/cyclic peptides of protein N of SARS-CoV Urbani [1] | Binding of serum 2 to linear peptides of protein N of SARS-CoV Urbani [1] | Binding of serum 2 to looped/cyclic peptides of protein N of SARS-CoV Urbani [1] | Binding of serum 6 to linear peptides of protein N of SARS-CoV Urbani [1] | Binding of serum 6 to looped/cyclic peptides of protein N of SARS-CoV Urbani [1] | Binding of serum 37 to linear peptides of protein N of SARS-CoV Urbani [1] | Binding of serum 37 to looped/cyclic peptides of protein N of SARS-CoV Urbani [1] | Binding of serum 62 to linear peptides of protein N of SARS-CoV Urbani [1] | Binding of serum 62 to looped/cyclic peptides of protein N of SARS-CoV Urbani [1] | Binding of serum London to linear peptides of protein N of SARS-CoV Urbani [1] | Binding of serum London to looped/cyclic peptides of protein N of SARS-CoV Urbani [1] | Binding of serum SARS-green to looped/cyclic peptides of protein N of SARS-CoV Urbani [1] | Binding of serum SARS-yellow to looped/cyclic peptides of protein N of SARS-CoV Urbani [1] | Binding of antibody 03-018 to linear peptides of the N protein of SARS-CoV Urbani [2] | Binding of antibody 03-018 to looped/cyclic peptides of the N protein of SARS-CoV Urbani [2] | Binding of a rabbit serum to linear peptides of protein N of SARS-CoV Urbani (Rabbit serum linear peptides) [3] | Binding of a rabbit serum to looped/cyclic peptides of protein N of SARS-CoV Urbani (Rabbit serum looped peptides) [3] | other results
GAIKLDDKDPQFKDN | 0.2 | 0.3 | 0.1 | 0.2 | 0.2 | 0.4 | 0.2 | 0.2 | 0.7 | 0.5 | 0.9 | 0.5 | 0.6 | 0.4 | 0.8 | 0.5 | 0.1 | 0.2 | 0.1 | 0.3 | Binding of serum SARS-green to linear peptides of protein N of SARS-CoV Urbani [1]: 0.5; Binding of serum SARS-yellow to linear peptides of protein N of SARS-CoV Urbani [1]: 0.7; Control Serum Blood-Bank Looped peptides [4]: 0.6; Control serum Blood-bank linear peptides [4]: 0.7; Control serum LUMC linear peptides [4]: 0.7; Control serum LUMC looped peptides [4]: 0.5
AIKLDDKDPQFKDNV | 0.2 | 0.3 | 0.1 | 0.2 | 0.2 | 0.3 | 0.2 | 0.2 | 0.8 | 0.5 | 0.9 | 0.4 | 0.6 | 0.4 | 0.4 | 0.2 | 0.1 | 0.2 | 0.1 | 0.3 | Binding of serum SARS-green to linear peptides of protein N of SARS-CoV Urbani [1]: 0.7; Binding of serum SARS-yellow to linear peptides of protein N of SARS-CoV Urbani [1]: 0.6; Control Serum Blood-Bank Looped peptides [4]: 0.5; Control serum Blood-bank linear peptides [4]: 0.7; Control serum LUMC linear peptides [4]: 0.8; Control serum LUMC looped peptides [4]: 0.5
TFGGPTDSTDNNQNG | 0.3 | 0.3 | 0.1 | 0.2 | 0.2 | 0.3 | 0.2 | 0.2 | 0.8 | 0.4 | 0.6 | 0.3 | 0.6 | 0.3 | 0.5 | 0.1 | 0.1 | 0.2 | 0.1 | 0.1 | Binding of serum SARS-green to linear peptides of protein N of SARS-CoV Urbani [1]: 0.5; Binding of serum SARS-yellow to linear peptides of protein N of SARS-CoV Urbani [1]: 0.5; Binding of Control Serum Blood-Bank to Looped peptides [4]: 0.5; Binding of Control serum Blood-bank to linear peptides [4]: 0.8; Binding of Control serum LUMC to linear peptides [4]: 0.7; Binding of Control serum LUMC to looped peptides [4]: 0.5
FGDQDLIRQGTDYKH | – | 0.4 | – | 0.3 | – | 0.4 | – | 0.2 | – | 0.7 | – | 0.6 | – | 0.4 | 0.7 | 0.5 | 0.1 | 0.2 | 0.1 | 0.5 | Binding of serum 1a to linear peptide (PEPSCAN-ELISA) [1]: 0.3; Binding of serum 1b to linear peptide (PEPSCAN-ELISA) [1]: 0.2; Binding of serum 2 to linear peptide (PEPSCAN-ELISA) [1]: 0.2; Binding of serum 6 to linear peptide (PEPSCAN-ELISA) [1]: 0.2; Binding of serum 37 to linear peptide (PEPSCAN-ELISA) [1]: 0.7; Binding of serum 62 to linear peptide (PEPSCAN-ELISA) [1]: 0.7; Binding of serum London to linear peptide (PEPSCAN-ELISA) [1]: 0.6; Binding of serum SARS-green to linear peptide (PEPSCAN-ELISA) [1]: 0.7; Binding of serum SARS-yellow to linear peptide (PEPSCAN-ELISA) [1]: 0.6; Binding of Control Serum Blood-Bank to Looped peptides [4]: 0.6; Binding of Control serum Blood-bank to linear peptides [4]: 0.8; Binding of Control serum LUMC to linear peptides [4]: 0.7; Binding of Control serum LUMC to looped peptides [4]: 0.7
